Experiments:
[1] = Body weights and behaviour of xenograft models; type: in vivo; conditions: CDX and PDX mice at the efficacy dosage
Procedure: All animal studies were performed following federal and institutional guidelines approved by the Institutional Animal Care and Use Committee at Shanghai Jiao-Tong University School of Medicine. To establish the CDXs, HCT116 cells (1 × 10^6) suspended in 100 μL of 1× PBS were injected subcutaneously into the flanks of six-week-old male BALB/c nude mice. To establish the PDXs, primary tumors resected from two independent CRC patients (patient #1 and #2) were collected in the culture medium. The necrotic and supporting tissues were carefully removed using sterilized surgical blades. The gross tumor was cut into fragments (2-3 mm in diameter) and inoculated subcutaneously into the flanks of nude mice. The mice were monitored daily, and caliper measurements began when tumors became visible. The tumor volume was monitored every other day via calipers. The tumor volume was calculated using the following formula: (L × W ^2) / 2, where L and W refer to the tumor diameter along the longitudinal and transverse axes, respectively. When the mean tumor volume was approximately 100 to 250 mm^3, the mice were randomly grouped (n = 6 per group for CDXs, n = 8 per group for PDXs), and treatment was initiated. […] After treatment or if meeting the humane endpoint criteria, the mice were sacrificed by CO2 asphyxiation. The tumors were dissected, imaged, and weighed. […]

[2] = test system: HCT116, HT29, and LOVO cells; assay: Combination drug treatment, CCK-8, Chou-Talalay combination index; type: cell-based, human; conditions: MDL-811 (5 to 10 μM) plus 1,25(OH)2D3 (1 to 10 μM), 48 h, three CRC cell lines; CI < 1 = synergism
Procedure: 1,25(OH)2D3 was purchased from TargetMol. For cell proliferation assays, 1,25(OH)2D3 was dissolved in DMSO, stored at -20 °C and protected from light. The maximum final DMSO concentration used in all treatment conditions was 0.25%. […] Then, cell proliferation assays were performed using the CCK-8 method. Combination effects were analyzed by the Chou-Talalay combination index (CI) method. The CI values and the fraction of cells affected values were generated using CompuSyn Version 1.0 software. CI values of < 1, = 1, and > 1 indicate synergism, additivity, and antagonism between the drugs, respectively.

[3] = target: T1, SIRT6 (Homo sapiens, UniProt Q8N6T7); assay: Histone deacetylase enzyme selectivity assay; type: biochemical; set-up: endogenous in cells; host or cells: HEK293T; conditions: SIRT6, selectivity panel
T1 sequence (Q8N6T7 whole entry): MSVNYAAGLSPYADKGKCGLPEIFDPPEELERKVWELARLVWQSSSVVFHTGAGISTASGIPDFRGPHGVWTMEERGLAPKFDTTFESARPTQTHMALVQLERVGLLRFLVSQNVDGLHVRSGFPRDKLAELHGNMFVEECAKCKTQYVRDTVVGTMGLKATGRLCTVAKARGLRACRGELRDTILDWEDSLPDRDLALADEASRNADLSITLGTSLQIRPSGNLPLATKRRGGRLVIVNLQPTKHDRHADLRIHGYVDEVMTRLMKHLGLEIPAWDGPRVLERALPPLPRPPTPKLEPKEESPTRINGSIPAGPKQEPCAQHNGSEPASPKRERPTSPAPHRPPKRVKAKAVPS
Procedure: Then, the reaction was initiated by adding the fluorogenic HDAC acetylated substrate (also adding NAD^+ in the deacetylase assays of sirtuins) at the indicated concentrations at room temperature or 37 °C for the indicated durations. After incubation, the reaction was stopped with an equal volume of buffer containing 1 mL of HDAC developer (peptidase activity, BPS Bioscience); 20 µM trichostatin was also included for the termination in the deacetylase assays of HDAC1-11. After the indicated time, fluorescence intensity was measured using a microplate reader (Envision, Perkin Elmer) at excitation and emission wavelengths of 355 nm and 460 nm, respectively. We also developed deacetylase assays for SIRT5 and SIRT7, which were not available at CEREP. For SIRT5 deacetylation assay, HEK293T cells were transiently transfected with empty vector or pcDNA3.1-SIRT5-HA (10 μg/10 cm plate) using Neofect™ DNA transfection reagent. 48 h after transfection, cells were lysed in ice-cold NP-40 buffer (50 mM Tris-HCl [pH 8.0], 150 mM NaCl, 1% NP-40, and protease inhibitor cocktail) with rotation at 4 °C for 30 min. A particle-free supernatant solution was obtained by centrifugation at 13,600 × g for 15 min at 4 °C. […] The data points at various concentrations were expressed as percent inhibition or activation effects of the control activity. […]

[4] = target: T1, SIRT6; assay: Histone H3 deacetylation in HEK293T cells (western blot); type: cell-based; set-up: endogenous in cells; host or cells: HEK293T; conditions: dose-dependent
Procedure: Western blot analysis was performed as described previously. […] After 48 h of treatment, the cells were lysed with 1× SDS and separated by SDS-PAGE, followed by incubation with specific primary antibodies overnight at 4 °C and then with HRP-linked anti-rabbit IgG (#7074, Cell Signaling Technology) or HRP-linked anti-mouse IgG (#7076, Cell Signaling Technology). An Immobilon Western Chemiluminescent HRP Substrate Kit (Merck Millipore) was used for detection. Information regarding the primary antibodies can be found in Table S6. Quantification of western blot data was performed using ImageJ V4.

[5] = target: T1, SIRT6; assay: FDL assay of SIRT6 deacylase activity (EALPKK-Myr-AMC); type: biochemical; set-up: WT (wild-type) full-length human SIRT6 was inserted into the pET28a-LIC vector; made in house; host or cells: Escherichia coli BL21 (DE3); conditions: myristoyl peptide EALPKK-Myr-AMC
Procedure: According to previously described methods, WT (wild-type) full-length human SIRT6 was inserted into the pET28a-LIC vector (Addgene plasmid #26094). The plasmid was transformed into Escherichia coli BL21 (DE3) cells. Protein was purified using a nickel column and gel filtration. Purified protein was dialyzed into assay buffer (50 mM Tris-HCl [pH 8.0], 137 mM NaCl, 2.7 mM KCl, and 1 mM MgCl2) and used in all in vitro assays performed in this study.
[…], 5 μM WT SIRT6 was incubated in a 50-μL reaction mixture (2.5 mM NAD^+, […], compounds/DMSO, and assay buffer) at 37 °C for 2 h, quenched with 40 mM nicotinamide, and developed with 6 mg/mL trypsin for another 30 min at 25 °C. […] Fluorescence intensity was measured using a microplate reader (Synergy H4 Hybrid Reader, BioTek) at excitation and emission wavelengths of 360 nm and 460 nm, respectively. EC50 values were calculated by fitting the data points with the dose-response function in GraphPad Prism V7 (GraphPad Software). Each experiment was independently repeated three times in technical triplicates.

Cc1cc(F)c(Br)cc1NS(=O)(=O)c1ccc(NS(=O)(=O)c2cc(Cl)cc(Cl)c2)cc1CN1CCOC[C@H]1C [MDL-811]
weight loss and behavioral signs [1]: did not observe any significant weight loss or other abnormal behavioral signs | CI values (Chou-Talalay) [2]: < 1 | Effect [3]: Activation | deacetylation of H3K9Ac, H3K18Ac, and H3K56Ac [4]: significantly enhanced the deacetylation of SIRT6 (H3K9Ac, H3K18Ac, and H3K56Ac) | effect on SIRT6 deacylation [5]: no apparent effect
